According to patent US11104965B2, “Methods for the diagnosis and treatment of inflammatory bowel disease” (priority 2013, dated 2021):

Key:
[1] = tested on: Atopobium-induced colitis in II10−/− mice; assay: Atopobium-induced colitis in II10-/- mice under SPF conditions, treated or not with bismuth (colonoscopy, blinded histological inflammation score); format: in vivo, mouse; settings: A. parvulum-associated II10-/- mice, 6 weeks
Description: (§1) To test the causative role of H2S-producing microbes in colitis, we assessed whether an H2S scavenger (bismuth) could alleviate Atopobium-induced colitis in II10^−/− mice. […] It should be noted that the intestines of IBD patients also display a similar increased number of lymphoid follicles^15. […] Increased GALT foci in Atopobium-associated mice could lead to an aberrant expression of lymphoid adhesion molecules and unwanted T cell activation towards commensal microbes. To assess the role of these commensal microbes in colitis development, germ-free mice were mono-associated with A. parvulum and kept under gnotobiotic conditions.
Colonic mucosal lavages and/or mucosal biopsies were collected from 157 pediatric subjects (84 Crohn's Disease, 20 Ulcerative Colitis, and 53 controls). […] Reads were quality filtered and QIIME ^23 was used to assign reads into operational taxonomic units (OTUs) against the Greengenes reference set. […] The generated raw data was processed and analyzed by MaxQuant against the decoy Uniport-human database with the protein-group file imported into Persus for statistical analysis. […] The transcript levels of TST, SQRDL and COX4-1 were quantified by RT-qPCR. […] Mouse colonoscopies were performed and histological inflammation was blindly scored as previously described ^25. Mice mucosal cytokines (Cxcl1, II12p40, II1β and II17a) were quantified by RT-qPCR. […]

[2] = tested on: GALT foci of II10−/− mice; assay: Number of GALT foci in II10-/- mice associated with A. parvulum, SPF conditions; format: in vivo, mouse; settings: Atopobium-associated II10-/- mice under SPF conditions; FIG. 4C
Protocol: (§2) Statistical significance was assessed using a Kruskal-Wallis test with a Dunn's post hoc test.
as §1
(§3) To investigate involvement of complex biota and H2S in the development of colitis, we performed two subsequent experiments using 129/SvEv II-10^−/− mice. […] Mice were euthanized after 6 weeks of mono-association. […] Mice were fed with this diet starting 1 week before the colonization with A. parvulum. […] Mice were euthanized after 6 weeks of weekly infection with A. parvulum. […]
(§4) All animal protocols were approved by the Institutional Animal Care and Use Committee of the University of North Carolina at Chapel Hill. […] Histological images were acquired using a DP71 camera and DP Controller 3.1.1.276 (Olympus), and intestinal inflammation was scored as previously described^12. […]

[3] = tested on: GALT foci of II10−/− mice; assay: Number of GALT foci in II10-/- mice mono-associated with A. parvulum, gnotobiotic conditions; format: in vivo, mouse; settings: germ-free II10-/- mice mono-associated with A. parvulum, FIG. 4C
Protocol: as §2, §1, §3, §4

[4] = tested on: A. parvulum; assay: A. parvulum colonization level in stool of mono-associated II10-/- mice by real-time qPCR; format: in vivo, Atopobium parvulum; settings: 6 weeks, P=0.0001, FIG. 12B
Protocol: Statistical significance was assessed using a Mann-Whitney U-test.
as §1
To investigate involvement of complex biota and H2S in the development of colitis, we performed two subsequent experiments using 129/SvEv II-10^−/− mice. […] Mice were euthanized after 6 weeks of mono-association. […] Mice were fed with this diet starting 1 week before the colonization with A. parvulum. […] Mice were euthanized after 6 weeks of weekly infection with A. parvulum. […] Mice were fed with this diet starting 1 week before the colonization with A. parvulum.

[5] = tested on: gut microbiota of II10−/− mice; assay: Gut microbiota composition of SPF and Atopobium-associated II10-/- mice, treated or not with bismuth (PCA, Table 6); format: in vivo, mouse
Description: To assess the role of these commensal microbes in colitis development, germ-free mice were mono-associated with A. parvulum and kept under gnotobiotic conditions. […] FIG. 12B). […] GF+bismuth (III) subsalicylate (n=10); 3: […] A. parvulum+bismuth (III) subsalicylate (n=11). Mice were euthanized after 6 weeks of mono-association. […] Mice were fed with this diet starting 1 week before the colonization with A. parvulum. […] SPF+bismuth (III) subsalicylate (n=8); 3: […] A. parvulum+bismuth (III) subsalicylate (n=8). Mice were euthanized after 6 weeks of weekly infection with A. parvulum. […] Mice were fed with this diet starting 1 week before the colonization with A. parvulum.

O=C([O-])c1ccccc1[O-].[Bi+3].[OH-] [bismuth, Bismuth (III) subsalicylate]
inflammatory score ([1]; bismuth 7 g/kg in chow, P=0.007, FIG. 4B): decrease inflammatory score
colitis as evidenced by colonoscopy visualization ([1]; bismuth (III) subsalicylate 7 g/kg in chow, FIG. 4A): prevented colitis
GALT formation (number of GALT foci) [2]: did not prevent GALT formation
GALT neogenesis [3]: prevented GALT neogenesis
A. parvulum colonization level (16S rDNA gene copies per mg of stool) [4]: reduced colonization level
microbiota of Atopobium-associated mice, abundance of butyrate-producers ([5]; Atopobium-associated II10-/- mice, SPF): restores the microbiota of these mice toward a healthier community
microbiota composition ([5]; SPF and Atopobium-associated II10-/- mice, Table 6): altered the microbiota composition
